Test results taken from patent US10745382B2 (BRISTOL-MYERS SQUIBB COMPANY, priority 2015, dated 2020).

Biological target: T1, PD-1/PD-L1 (Homo sapiens, UniProt Q9NZQ7)
T1 construct: made in house; host or cells: HEK293T
Assay: PD-1/PD-L1 Homogenous Time-Resolved Fluorescence (HTRF) binding assay
Settings: PD-L1-His 10 nM, PD-1-Ig 20 nM; value given as range class; read-out: Range or IC50
How it was run: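 Detection by europium cryptate anti-Ig plus APC anti-His (1 nM and 20 nM final) with HTRF signal. Buffer was dPBS, 0.1% BSA, 0.05% Tween-20.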

T1 sequence (Q9NZQ7 with tags, fused parts or gaps): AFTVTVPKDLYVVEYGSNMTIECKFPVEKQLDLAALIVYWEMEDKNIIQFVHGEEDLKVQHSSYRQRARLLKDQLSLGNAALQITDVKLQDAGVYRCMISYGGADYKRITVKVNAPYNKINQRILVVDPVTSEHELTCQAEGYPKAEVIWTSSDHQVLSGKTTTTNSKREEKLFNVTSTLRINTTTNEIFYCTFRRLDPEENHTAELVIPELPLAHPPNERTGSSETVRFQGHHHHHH

Compound | IC50 [nM]
Cc1cccc(C)c1COc1cc(OCc2cccc(-c3cccc(OCCCN4CC[C@@H](O)C4)c3C)c2C)c(Cl)cc1CN1CCCC[C@H]1C(=O)O [Example 4516, (S)-1-(5-chloro-2-((2,6-dimethylbenzyl)oxy)-4-((3′-(3-((R)-3-hydroxypyrrolidin-1-yl)propoxy)-2,2′-dimethyl-[1,1′-biphenyl]-3-yl)methoxy)benzyl)piperidine-2-carboxylic Acid] | 2010 to 10000
Cc1c(COc2cc(OCc3cncc(C#N)c3)c(CN3C[C@H](O)C[C@H]3C(=O)O)cc2Cl)cccc1-c1cccc(C(=O)N(C)C)c1C [Example 4032, (2S,4R)-1-(5-chloro-2-((5-cyanopyridin-3-yl)methoxy)-4-((3′-(dimethylcarbamoyl)-2,2′-dimethyl-[1,1′-biphenyl]-3-yl)methoxy)benzyl)-4-hydroxypyrrolidine-2-carboxylic Acid] | 100 to 2000
Cc1c(COc2cc(OCc3cncc(C#N)c3)c(CN3CCCC[C@H]3C(=O)O)cc2Cl)cccc1-c1cccc(OCCCN2CCC(CO)(C(=O)O)CC2)c1C [Example 1110, (S)-1-(4-((3′-(3-(4-carboxy-4-(hydroxymethyl)piperidin-1-yl)propoxy)-2,2′-dimethyl-[1,1′-biphenyl]-3-yl)methoxy)-5-chloro-2-((5-cyanopyridin-3-yl)methoxy)benzyl)piperidine-2-carboxylic Acid] | 10 to 100
Cc1c(COc2cc(OCc3cncc(C#N)c3)c(CN[C@@H](CO)C(=O)O)cc2Cl)cccc1-c1cccc(C(=O)N2CCOCC2)c1C [Example 4055, (5-chloro-2-((5-cyanopyridin-3-yl)methoxy)-4-((2,2′-dimethyl-3′-(morpholine-4-carbonyl)-[1,1′-biphenyl]-3-yl)methoxy)benzyl)-L-serine] | 10 to 100
Cc1c(COc2cc(OCc3cncc(C#N)c3)c(CNC(CO)CO)cc2Cl)cccc1-c1cccc(OCCCNCCc2cccnc2)c1Cl [Example 2037, 5-((4-chloro-5-((2′-chloro-2-methyl-3′-(3-((2-(pyridin-3-yl)ethyl)amino)propoxy)-[1,1′-biphenyl]-3-yl)methoxy)-2-(((1,3-dihydroxypropan-2-yl)amino)methyl)phenoxy)methyl)nicotinonitrile] | 0.21 to 10
Cc1c(COc2cc(OCc3cncc(C#N)c3)c(CNC(C)(CO)CO)cc2Cl)cccc1-c1cccc(OCCCN2CCCC(CO)C2)c1Cl (stereo not shown) [Example 2098, 5-((4-chloro-5-((2′-chloro-3′-(3-(3-(hydroxymethyl)piperidin-1-yl)propoxy)-2-methyl-[1,1′-biphenyl]-3-yl)methoxy)-2-(((1,3-dihydroxy-2-methylpropan-2-yl)amino)methyl)phenoxy)methyl)nicotinonitrile] | 0.21 to 10
Cc1c(COc2cc(OCc3cc(Cl)cc(Cl)c3)c(CNC(CO)CO)cc2Cl)cccc1-c1cccc(OCCCN2CC[C@@H](O)C2)c1C [Example 4501, (R)-2-((5-chloro-2-((3,5-dichlorobenzyl)oxy)-4-((3′-(3-(3-hydroxypyrrolidin-1-yl)propoxy)-2,2′-dimethyl-[1,1′-biphenyl]-3-yl)methoxy)benzyl)amino)propane-1,3-diol] | 0.21 to 10
Cc1c(COCCN2CC[C@@H](O)C2)cccc1-c1cccc(COc2cc(OCc3cncc(C#N)c3)c(CNC(CO)(CO)CO)cc2Cl)c1C [Example 4125, (R)-5-((4-chloro-2-(((1,3-dihydroxy-2-(hydroxymethyl)propan-2-yl)amino)methyl)-5-((3′-((2-(3-hydroxypyrrolidin-1-yl)ethoxy)methyl)-2,2′-dimethyl-[1,1′-biphenyl]-3-yl)methoxy)phenoxy)methyl)nicotinonitrile] | 0.21 to 10
Cc1c(COc2cc(OCc3cncc(C#N)c3)c(CO)cc2Cl)cccc1-c1cccc(OCCCN2CCC[C@H](C(=O)O)C2)c1Cl [Example 2009, (S)-1-(3-((2-chloro-3′-((2-chloro-5-((5-cyanopyridin-3-yl)methoxy)-4-(hydroxymethyl)phenoxy)methyl)-2′-methyl-[1,1′-biphenyl]-3-yl)oxy)propyl)piperidine-3-carboxylic Acid] | 10 to 100
Cc1c(COc2cc(OCc3cncc(C#N)c3)c(CNC(CO)(CO)CO)c(C)c2Cl)cccc1-c1cccc(OCCCN2CC[C@@H](O)C2)c1C [Example 4104, (R)-5-((4-chloro-2-(((1,3-dihydroxy-2-(hydroxymethyl)propan-2-yl)amino)methyl)-5-((3′-(3-(3-hydroxypyrrolidin-1-yl)propoxy)-2,2′-dimethyl-[1,1′-biphenyl]-3-yl)methoxy)-3-methylphenoxy)methyl)nicotinonitrile] | 0.21 to 10
Cc1c(COc2cc(OCCCN3CC[C@@H](O)C3)c(CN[C@@H](CO)C(=O)O)cc2Cl)cccc1-c1cccc(OCCCN2CC[C@@H](O)C2)c1C [Example 1530, (5-chloro-2-(3-((R)-3-hydroxypyrrolidin-1-yl)propoxy)-4-((3′-(3-((R)-3-hydroxypyrrolidin-1-yl)propoxy)-2,2′-dimethyl-[1,1′-biphenyl]-3-yl)methoxy)benzyl)-L-serine] | 0.21 to 10

Other lines, results leading:

IC50 [nM] | Compound
0.21 to 10 | Cc1c(COc2cc(OCc3cncc(C(=N)N4CC[C@@H](O)C4)c3)c(CNC(C)(CO)CO)cc2Cl)cccc1-c1cccc(OCCCN2CC[C@@H](O)C2)c1Cl [Example 2105, 2-((5-chloro-4-((2′-chloro-3′-(3-((R)-3-hydroxypyrrolidin-1-yl)propoxy)-2-methyl-[1,1′-biphenyl]-3-yl)methoxy)-2-((5-(((R)-3-hydroxypyrrolidin-1-yl)(imino)methyl)pyridin-3-yl)methoxy)benzyl)amino)-2-methylpropane-1,3-diol]
0.21 to 10 | Cc1c(COc2cc(OCc3cncc(C#N)c3)c(CN[C@@H](CO)C(=O)O)cc2Cl)cccc1-c1cccc(OCCCNC[C@H](O)CO)c1Cl [Example 2004, (S)-2-((5-chloro-4-((2′-chloro-3′-(3-(((S)-2,3-dihydroxypropyl)amino)propoxy)-2-methyl-[1,1′-biphenyl]-3-yl)methoxy)-2-((5-cyanopyridin-3-yl)methoxy)benzyl)amino)-3-hydroxypropanoic Acid]
0.21 to 10 | Cc1c(COc2cc(OCc3cncc(C#N)c3)c(CN[C@](C)(CO)C(=O)O)cc2Cl)cccc1-c1cccc(OCCCN2CCC(O)CC2)c1C [Example 1059, (R)-2-((5-chloro-2-((5-cyanopyridin-3-yl)methoxy)-4-((3′-(3-(4-hydroxypiperidin-1-yl)propoxy)-2,2′-dimethyl-[1,1′-biphenyl]-3-yl)methoxy)benzyl)amino)-3-hydroxy-2-methylpropanoic Acid]
0.21 to 10 | COC(=O)C1(O)CCN(CCCOc2cccc(-c3cccc(COc4cc(OCc5cncc(C#N)c5)c(CN[C@H](CO)C(=O)O)cc4Cl)c3C)c2C)CC1 [Example 1029, (R)-2-((5-chloro-2-((5-cyanopyridin-3-yl)methoxy)-4-((3′-(3-(4-hydroxy-4-(methoxycarbonyl)piperidin-1-yl)propoxy)-2,2′-dimethyl-[1,1′-biphenyl]-3-yl)methoxy)benzyl)amino)-3-hydroxypropanoic Acid]
0.21 to 10 | Cc1c(CCCCN2CC[C@@H](O)C2)cccc1-c1cccc(COc2cc(OCc3cncc(C#N)c3)c(CN3CCCC[C@H]3C(=O)O)cc2Cl)c1C [Example 4061, (S)-1-(5-chloro-2-((5-cyanopyridin-3-yl)methoxy)-4-((3′-(4-((R)-3-hydroxypyrrolidin-1-yl)butyl)-2,2′-dimethyl-[1,1′-biphenyl]-3-yl)methoxy)benzyl)piperidine-2-carboxylic Acid]
